Test results: the supplement of paper PMC11208160

Experiment: recombinant barcode read abundance after kanamycin selection (control-corrected) (log10(CPM+1)); higher = more efficient recombination; sequences stand for … in AGTGCAGAGAAAATCGGCCAGTTTTCTCTGCCTGCAGTCCGCATGCCGT…AGATTTATGCAGCGGACTGCCTTTCTCCCAAAGTGATAAACCGGACAGTATCATGGACCGGTTTTCCCGGTAATCCGTATTTGCAAGGTTGGTTTCACT; site = the 11-nt target
Outline: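 In E. coli, a pooled library matched targets to IS621 bridge RNA target-binding loops and was introduced alongside a donor plasmid. Cells went onto chloramphenicol/ampicillin/kanamycin with 0.1 mM IPTG or onto chloramphenicol/ampicillin LB agar as control, in duplicate. Recombination efficiency, from recombinant-junction barcodes as counts per million, is averaged and control-corrected. It is reported as log10(CPM+1).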
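Also: IS621 recombinase and bridge RNA in Escherichia coli cells.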

| Sequence | recombinant barcode read abundance (log10) |
| --- | --- |
| GACTCCGCTTGGGTTCTAACCTGTTGCCT (site GACTCCGCTAG) | 0.876 |
| GTAACCTCTTGGGTTCTAACCTGTTGCCT (site GTAACCTCTCG) | 1.15 |
| GGTCGTGCTTGGGTTCTAACCTGTTGCCT (site GGTCGTGCTAG) | 1.14 |
| CCTCACTCTTGGGTTCTAACCTGTTGCGG (site CCTCACTCTCC) | 1.66 |
| GTGAACTCTTGGGTTCTAACCTGTTGCCT (site GTAAACTCTAG) | 1.56 |
| GCTAACCCTTGGGTTCTAACCTGTTGCCT (site ACTAAACCTAG) | 0.5 |
| AACTGAACTTGGGTTCTAACCTGTTGCCT (site AACTAAACTAG) | 0.18 |
| AGACTAACTTGGGTTCTAACCTGTTGCCT (site ACACTAACTAG) | 0.0816 |
| AGATCCACTTGGGTTCTAACCTGTTGCCT (site GGATCCACTAG) | 0.0847 |
| CGGAATCCTTGGGTTCTAACCTGTTGCGT (site CGGAATCCTAT) | 1.19 |
| AATCTGTCTTGGGTTCTAACCTGTTGCGT (site AATCTGTCTAC) | 1.8 |
| TCGAACCCTTGGGTTCTAACCTGTTGCTT (site GCGAACCCTAA) | 0.0343 |
| ACGCGAGCTTGGGTTCTAACCTGTTGCAG (site ACGCGAGCTCA) | 0.188 |
| CACATTCCTTGGGTTCTAACCTGTTGCCT (site AACATTCCTAG) | 0.158 |
| ATCGTAGCTTGGGTTCTAACCTGTTGCCA (site ACCCTAGCTTG) | 0.497 |
| GAAGAGCCTTGGGTTCTAACCTGTTGCCT (site GAAGCGCCTAG) | 0.189 |
| TTCAGACCTTGGGTTCTAACCTGTTGCCT (site TTCAGACCTAG) | 0.912 |
| ACTAACACTTGGGTTCTAACCTGTTGCCT (site CCTAACACTAG) | 0.0857 |
| GCATCTCCTTGGGTTCTAACCTGTTGCCT (site CCATCTCCTAG) | 0.103 |
| CGGGCAGCTTGGGTTCTAACCTGTTGCCT (site CGGGCAGCTAG) | 0.0664 |
| GCATCCACTTGGGTTCTAACCTGTTGCCT (site GCGTCCACTAG) | 0.0333 |
| CGGAAGCCTTGGGTTCTAACCTGTTGCCT (site CGGAAGTCTAG) | 0.818 |

| Sequence | recombinant barcode read abundance (log10) |
| --- | --- |
| CACGGTCCTTGGGTTCTAACCTGTTGCCA (site CACGGTCCTTG) | 1.31 |
| ACTATCCCTTGGGTTCTAACCTGTTGCGG (site ACTATCCCTCC) | 1.16 |
| GTGTACCCTTGGGTTCTAACCTGTTGCCT (site GCGTACCCTAG) | 1.13 |
| GCCTGGGCTTGGGTTCTAACCTGTTGCCG (site GCCGGGGCTCG) | 0.114 |
| CTCTAGTCTTGGGTTCTAACCTGTTGCTT (site CTCTAGTCTAC) | 0.518 |
| TGTAGGACTTGGGTTCTAACCTGTTGCCT (site TGTAGGACTAG) | 0.553 |
| ATCTTACCTTGGGTTCTAACCTGTTGCCT (site ATCTTAACTAG) | 0.069 |
| GCGGCTTCTTGGGTTCTAACCTGTTGCCT (site GTGGCTTCTAG) | 0.121 |
| TGTTAGACTTGGGTTCTAACCTGTTGCCT (site TGTTAGACTAG) | 0.164 |
| CCAAGGGCTTGGGTTCTAACCTGTTGCTG (site CCAAGGGCTCG) | 0.0611 |
| CCGCCCTCTTGGGTTCTAACCTGTTGCTT (site CCGCCCTCTAA) | 0.291 |
| TCCTAACCTTGGGTTCTAACCTGTTGCTG (site TCCTAACCTCA) | 1.37 |
| GATCGATCTTGGGTTCTAACCTGTTGCAT (site GATCGATCTAT) | 0.666 |
| CTACCCTCTTGGGTTCTAACCTGTTGCAT (site CTAACCTCTAT) | 0.026 |
| GTAAGTTCTTGGGTTCTAACCTGTTGCCT (site GAAAGTTCTAG) | 0.049 |
| CTACCAACTTGGGTTCTAACCTGTTGCCT (site CTACCAGCTAG) | 0.124 |
| ATCGGAGCTTGGGTTCTAACCTGTTGCTG (site ATCGGAGCTCC) | 0.67 |
| AGTCTCTCTTGGGTTCTAACCTGTTGCCG (site AGTCTCTCTCG) | 0.357 |
| AACAAGACTTGGGTTCTAACCTGTTGCCT (site AACAAGACTAG) | 1.29 |
| CAGAGTCCTTGGGTTCTAACCTGTTGCTT (site CATAGTCCTAG) | 0.105 |
| AGTTACACTTGGGTTCTAACCTGTTGCCT (site AGTTGCACTAG) | 0.0991 |
| CGGTGTCCTTGGGTTCTAACCTGTTGCTT (site CGGTGTCCTAA) | 1.21 |

| Sequence | recombinant barcode read abundance (log10) |
| --- | --- |
| GAGGGGTCTTGGGTTCTAACCTGTTGCAC (site CAGGCGTCTGT) | 0.122 |
| CTAATTACTTGGGTTCTAACCTGTTGCCT (site CTAATTACTAG) | 0.946 |
| GGCCGAACTTGGGTTCTAACCTGTTGCCT (site AGCCGAACTAG) | 0.112 |
| AAATGGGCTTGGGTTCTAACCTGTTGCGG (site AGATGAGCTCC) | 0.166 |
| ACCAATACTTGGGTTCTAACCTGTTGCCT (site ACCAATCCTAG) | 0.122 |
| GGCAAGACTTGGGTTCTAACCTGTTGCCT (site GGGAAGACTAG) | 0.154 |
| ATCAGGTCTTGGGTTCTAACCTGTTGCCT (site AGCAGGTCTAG) | 0.107 |
| CTCTAAACTTGGGTTCTAACCTGTTGCCA (site CTCTATACTTG) | 0.0391 |
| TACACAGCTTGGGTTCTAACCTGTTGCCT (site TAGACAGCTAG) | 0.249 |
| ACCCACACTTGGGTTCTAACCTGTTGCCG (site ACCCACACTCG) | 1.8 |
| GGATTTACTTGGGTTCTAACCTGTTGCCT (site GGATATACTAG) | 0.0849 |
| GTCTATGCTTGGGTTCTAACCTGTTGCCT (site GACTATGCTAG) | 0.106 |
| CCACTACCTTGGGTTCTAACCTGTTGCCT (site CCACTACCTAG) | 0.253 |
| GGTGGCCCTTGGGTTCTAACCTGTTGCCT (site GGTGGCCCTAG) | 1.08 |
| ATTTGTACTTGGGTTCTAACCTGTTGCCT (site ATTTGAACTAG) | 0.0288 |
| GTCCAGACTTGGGTTCTAACCTGTTGCCT (site GTCCAGACTAG) | 1.97 |
| AGCCTGTCTTGGGTTCTAACCTGTTGCCT (site AGCCTGCCTAG) | 0 |
| AGGGGAGCTTGGGTTCTAACCTGTTGCCT (site AGGGAAGCTAG) | 1.12 |
| CGGTCCTCTTGGGTTCTAACCTGTTGCGC (site CGGTCCTCTGC) | 2.63 |
| ACCGCTACTTGGGTTCTAACCTGTTGCCT (site ACCGCTACTAG) | 0.176 |
| AGCAGAGCTTGGGTTCTAACCTGTTGCTG (site AGCAGAGCTCA) | 1.39 |
| ACAATCTCTTGGGTTCTAACCTGTTGCTC (site CACCAGACTTG) | 0.066 |

| Sequence | recombinant barcode read abundance (log10) |
| --- | --- |
| TGGGTGACTTGGGTTCTAACCTGTTGCCT (site GCCTGCCCTCA) | 0.422 |
| GATGTGACTTGGGTTCTAACCTGTTGCCT (site GATGTGACTAG) | 2.3 |
| ATGCCAACTTGGGTTCTAACCTGTTGCCT (site ATGCCAACTAG) | 0.327 |
| TAGGAACCTTGGGTTCTAACCTGTTGCCT (site AAGGAACCTAG) | 0.7 |
| ACGTATGCTTGGGTTCTAACCTGTTGCAT (site ACGTATGCTAT) | 0.556 |
| GCCTTGGCTTGGGTTCTAACCTGTTGCCT (site GCCTTGGCTAG) | 0.572 |
| TCGCTAGCTTGGGTTCTAACCTGTTGCCT (site CCGCTAGCTAG) | 0.4 |
| ACACGGACTTGGGTTCTAACCTGTTGCTA (site ACACGGACTTA) | 1.38 |
| TGGTTCGCTTGGGTTCTAACCTGTTGCCT (site TGGTTCGCTAG) | 1.43 |
| CATCCTCCTTGGGTTCTAACCTGTTGCTG (site CATCCTCCTCA) | 0.666 |
| GTAAGTTCTTGGGTTCTAACCTGTTGCCT (site GGAAGTTCTAG) | 0.0929 |
| TAATGACCTTGGGTTCTAACCTGTTGCAT (site TAATGACCTAA) | 0.0652 |
| AATTCACCTTGGGTTCTAACCTGTTGCCT (site CATTCACCTAG) | 0.0863 |
| GAGCGTTCTTGGGTTCTAACCTGTTGCCT (site GAGCGCTCTCG) | 0.199 |
| TGATCTCCTTGGGTTCTAACCTGTTGCTT (site TGATCTCCTAT) | 0.0466 |
| CGACCGACTTGGGTTCTAACCTGTTGCAG (site CGACCGACTCT) | 0.42 |
| TAGTCCTCTTGGGTTCTAACCTGTTGCTG (site TAGTCCTCTTA) | 0.185 |
| CAGTATTCTTGGGTTCTAACCTGTTGCCT (site CAGTAATCTAG) | 0.0186 |
| CCACTACCTTGGGTTCTAACCTGTTGCCT (site CCACTCCCTAG) | 0.0236 |
| GTTGGTCCTTGGGTTCTAACCTGTTGCCT (site GTTGGTCCTAG) | 1.75 |
